From patent publication US20220380430A1, “Non-Transgenic Functional Rescue of Neuropeptides” (Worcester Polytechnic Institute, priority 2021, published 2022)
“Also recorded” adds a separate entry of the source. No end group written: not given here.

How the values were obtained:
FRPR-16 = molecular target: T1, FRPR-16 (Caenorhabditis elegans, UniProt Q21957); assay: In vitro GPCR activation assay (CHO-K1 cells, aequorin, human Gα16), FRPR-16; format: cell-based, C. elegans; conditions: for activation of FRPR-16: in words; for EC50: calcium/aequorin luminescence in transfected CHO-K1 cells
T1 sequence (Q21957 1-340): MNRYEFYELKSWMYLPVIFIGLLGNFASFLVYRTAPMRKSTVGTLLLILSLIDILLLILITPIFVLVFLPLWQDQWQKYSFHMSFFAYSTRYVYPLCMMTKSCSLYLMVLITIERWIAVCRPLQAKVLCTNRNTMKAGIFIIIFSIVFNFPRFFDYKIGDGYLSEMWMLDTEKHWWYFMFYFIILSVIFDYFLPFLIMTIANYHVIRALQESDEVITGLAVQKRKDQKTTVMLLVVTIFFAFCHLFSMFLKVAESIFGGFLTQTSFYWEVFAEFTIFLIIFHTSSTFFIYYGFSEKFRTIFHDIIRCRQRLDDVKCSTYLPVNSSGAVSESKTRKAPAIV
Protocol: (§1) The GPCR activation assay was performed as previously described Van Sinay, E. et al. Proc. Natl Acad. Sci. USA 114, E4065-e4074 (2017) and Peymen, K. et al. PLoS Genet. 15, e1007945 (2019). Briefly, npr-10 and frpr-16 cDNAs were cloned into the pcDNA3.1 TOPO expression vector (Thermo Fisher Scientific). A CHO-K1 cell line (PerkinElmer, ES-000-A24) stably expressing apo-aequorin targeted to the mitochondria (mtAEQ) and human Gα16 was transiently transfected with the receptor cDNA construct or the empty pcDNA3.1 vector using Lipofectamine LTX and Plus reagent (Thermo Fisher Scientific). Cells were shifted to 28° C. one day later and allowed to incubate for 24 h. On the day of the assay, cells were collected in BSA medium (DMEM/Ham's F12 with 15 mM HEPES, without phenol red, 0.1% BSA) and loaded with […] coelenterazine h (Thermo Fisher Scientific) for 4 h at room temperature. The incubated cells were then added to synthetic peptides dissolved in DMEM/BSA, and luminescence was measured for 30 s at […] using a Mithras LB940 (Berthold Technologies) or MicroBeta LumiJet luminometer (PerkinElmer). After 30 s of readout, 0.1% triton X-100 was added to lyse the cells, resulting in a maximal calcium response that was measured for 10 s. After initial screening, concentration-response curves were constructed for HPLC-purified FLP-3 peptides by subjecting the transfected cells to each peptide in a concentration range from 1 pM to 10 μM. Cells transfected with an empty vector were used as a negative control. Assays were performed in triplicate on at least two independent days. Concentration-response curves were fitted using Prism v. 7 (nonlinear regression analysis with a sigmoidal concentration-response equation).

NPR-10B = molecular target: T2, NPR-10B (Caenorhabditis elegans, UniProt Q6EUU1); assay: In vitro GPCR activation assay (CHO-K1 cells, aequorin, human Gα16), NPR-10B; format: cell-based, C. elegans; conditions: for activation of NPR-10 (NPR-10B): in words; for EC50: title: NPR-10B, calcium/aequorin luminescence in transfected CHO-K1 cells
T2 sequence (Q6EUU1 1-362): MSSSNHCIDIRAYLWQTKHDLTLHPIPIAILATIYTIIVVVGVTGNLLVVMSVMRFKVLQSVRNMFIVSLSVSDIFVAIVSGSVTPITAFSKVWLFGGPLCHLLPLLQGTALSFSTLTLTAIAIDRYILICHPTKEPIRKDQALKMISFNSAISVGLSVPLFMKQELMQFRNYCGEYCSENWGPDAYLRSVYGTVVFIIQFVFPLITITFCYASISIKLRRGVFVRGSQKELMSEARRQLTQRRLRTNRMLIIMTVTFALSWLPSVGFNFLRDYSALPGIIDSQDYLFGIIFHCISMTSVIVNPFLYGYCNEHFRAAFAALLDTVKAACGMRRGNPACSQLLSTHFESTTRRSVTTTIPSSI
Protocol: Using Chinese hamster ovarian (CHO) cell cultures stably expressing the promiscuous G protein, Gα16, and the calcium reporter, aequorin, it was observed that both isoforms of NPR-10 are activated by seven of the ten FLP-3 peptides, with half-maximal effective concentrations (EC50) in the nM range (FIG. 14A-FIG. 14H, Table V). […] This peptide contains an R-to-K mutation within the C-terminal motif, which may explain the lack of receptor activation.
as §1

flp-3 lof males = assay: Drop avoidance assay to ascr #8 after FLP-3 peptide rescue-by-feeding; format: in vivo, C. elegans; conditions: flp-3 lof males raised on peptide; 1 μM ascr #8; in words
Protocol: To identify which FLP-3 peptides are required for male avoidance of ascr #8, a peptide feeding approach https://www.nature.com/articles/s42003-021-02547-7-ref-CR59 was adopted, similar to RNAi feeding (FIG. 16A). Using Gateway Cloning technology, FLP-3 peptide coding sequences were inserted into a bacterial expression vector. As a control, first the FLP-3 peptides were tested that are still encoded in the ok3625 allele which are insufficient to drive the proper ascr #8 response in vivo: FLP-3-1 (SPLGTMRFamide) (SEQ ID NO: 10) and FLP-3-4 (NPLGTMRFamide) (SEQ ID NO: 11). Then flp-3 lof animals were reared on lawns of bacteria expressing the rescue constructs, and their progeny were assayed for avoidance (FIG. 16B-FIG. 16D).
Assays were performed as described previously in Chute, C. D. & Srinivasan, J. Semin. Cell Dev. Biol. 33, 18-24 (2014); Chute, C. D. et al. Nat. Commun. 10, 3186 (2019); and Hilliard, M. A. et al., EMBO J. 23, 1101-1111 (2004). Fifty to sixty L4 worms were segregated by sex and stored at 20° C. for 5 h to overnight to be assayed as young adults. One to four hours prior to the assay, the lids of unseeded plates were tilted to allow any excess moisture to evaporate off the plates. At the time of the assay, 10 or more animals were transferred onto each of the dried, unseeded plates. A drop of either water or 1 μM ascr #8 was placed on the tail of forward moving animals, and their response was scored as either an avoidance response, or no response. The total number of avoidances was divided by the total number of drops to generate an avoidance index for that plate. This was repeated for at least 10 plates over at least three different days.
SCRAMBLE control or FLP-3 peptide constructs were grown overnight in LB media containing […] ampicillin at 37° C. and diluted to an OD600 of 1.0 prior to seeding on NGM plates containing […] ampicillin and 1 mM IPTG. The 75 μL lawn was left to dry and grow overnight at room temperature before three L4 animals were placed on the plates. Males were selected for testing in the same manner as described above but were isolated onto plates also seeded with the same peptide on which they had been reared. Animals were then assayed using either the avoidance assay or single worm assay.

him-5 and pdf-1 males = assay: Excursion (food-leaving) assay after rescue-by-feeding; format: in vivo, C. elegans; conditions: for PL (confidence interval): Probability of Leaving per hour, beyond 35 mm from food
Description: We quantified the behavioral activity of pdf-1 lof males using a food-leaving behavior as previously described. Individuals were placed on a small food spot, and track patterns were scored at three different time points (2, 6, 24 hrs) (FIG. 4A). “Never left food” indicate the absence of tracks outside the food spot. […] “Major excursion” indicates the presence of tracks past the 1 cm boundary (FIG. 1B, Excursion Assay). The food-leaving behavior was quantified as a measure of mate-searching behavior. In this behavior well-fed males left food in search of mates and the data is represented as a Probability of Leaving (PL) (FIG. 7A).
The mate searching behavior of pdf-1 mutants was quantified in a food leaving assay. him-5 animals were used as wild-type control to ensure the presence of males. him-5 and pdf-1 animals were fed OP50, scramble peptide, PDF-1A, PDF-1B, or a 1:1 mixture of PDF-1A and PDF-1B cultures. Four to six larval L4 hermaphrodites were passed onto an NGM plate containing […] AMP and 1 mM IPTG with 75 μL of peptide. These worms were grown at 20° C. for about 4 days until the male progeny of the initial L4 worms were young adults. The day prior to the assay, young adult male pdf-1 or him-5 worms were singled onto 60 mm plates containing lawns of either OP50 (NGM plates) or appropriate peptide cultures (NGM containing […] AMP and 1 mM IPTG). To determine the mate searching effects of pdf-1, we performed a food-leaving assay as described previously in Barrios, A., et al., Nat Neurosci 15, 1675-1682 (2012); Lipton, J., et al., The Journal of neuroscience: the official journal of the Society for Neuroscience 24, 7427-7434 (2004); Ryan, D. A. et al. Curr Biol 24, 2509-2517 (2014), with modifications. In this assay, individuals were placed on a small food spot, and track patterns were scored at the indicated times. Assay plates were prepared one day prior to assaying on 100 mm plates with 10 mL of Leaving Assay media (25 mM KPO4 (pH 6.0), 1 mM MgSO4, 1 mM CaCl2), 50 mM NaCl, 2.5 g/L Peptone, 17 g/L Agar). On center of plate, 7 μL of OP50 was added. Plates were lightly covered and stored at room temperature overnight (˜20° C., <40% humidity).
On the day of the assay, a single male was plated on the assay plate and placed in a dark, 20° C. incubator. At 2, 6, and 24 hours after the worms are plated, plates were scored for male worm tracks. Scored were separated into binned ranges. “Never left food” indicates the absence of tracks outside the food spot. […] “Major excursion” indicates the presence of tracks past the 1 cm boundary. The food leaving behavior was quantified at three different time points (2, 6, and 24 hours). (FIG. 4A, FIG. 7A, Table IV).
The mate searching defect of pdf-1 was quantified as a Probability of Leaving per hour (PL) (FIG. 4B, FIG. 7B).
The assay was performed across at least two days per condition, with at least n=50, wherein each assay plate with one male is equal to n=1. In all experiments, the investigators were blinded to genotype. Worm in the >35 mm from the center of food bin were scored as “leavers”. The probability of leaving per hour (Probability of Leaving (PL)) was calculated using an R script developed in Barrios et al., with assistance by (Personal Communications to Barrios, 2020). PL was calculated by the “hazard obtained by fitting an exponential parametric survival model to the censored data using maximum likelihood” (Table IV). The PLh-1 values for all pdf-1 animals fed scramble or peptide rescue were compared to him-5 worms fed scramble using an ANOVA followed by Bonferroni's multiple comparison (FIG. 4B, FIG. 7C).

EC50 (FRPR-16) [µM]	EC50 (NPR-10B) [µM]	Substance	rescue of avoidance phenotype to ascr #8 (Avoidance Index) (flp-3 lof males)	also measured
–	–	STVDSSEPVIRDQ [FLP-3-10]	unable to rescue the avoidance phenotype	activation of FRPR-16 (FRPR-16): did not activate FRPR-16; also recorded: did not activate either receptor; activation of NPR-10 (NPR-10B) (NPR-10B): failed to activate the receptor; also recorded: did not activate either receptor
0.0107	0.427	NPLGTMRF-NH2 [FLP-3-4, NPLGTMRFamide]	unable to rescue the avoidance phenotype on their own	–
0.0074	0.262	SPLGTMRF-NH2 [FLP-3-1, SPLGTMRFamide]	unable to rescue the avoidance phenotype on their own	–
–	–	SNAELINGLLSMNLNKLSGAG-NH2 [PDF-1B]	–	PL (confidence interval) (him-5 and pdf-1 males; him-5 males): 0.08712 (0.0754, 0.1007); Probability of Leaving, comparison in words (him-5 and pdf-1 males; pdf-1 lof males fed peptide): significantly different PL from pdf-1 males fed PDF-1A alone; rescue of food-leaving behavior (percent of males leaving food) (him-5 and pdf-1 males; pdf-1 lof males, 2, 6, 24 hrs): complete rescue of food-leaving behavior; PL (confidence interval) (him-5 and pdf-1 males; pdf-1 males): 0.05821 (0.04761, 0.07118)
0.0395	0.439	SAEPFGTMRF-NH2 [FLP-3-7, SAEPFGTMRFamide]	–	–
0.288	0.867	EAEEPLGTMRF-NH2 [FLP-3-3, EAEEPLGTMRFamide]	–	–
–	–	SNAELINGLIGMDLGKLSAVG-NH2 [PDF-1A]	–	PL (confidence interval) (him-5 and pdf-1 males; him-5 males): 0.06979 (0.05892, 0.08269); PL (confidence interval) (him-5 and pdf-1 males; pdf-1 males): 0.03287 (0.02657, 0.04224)
0.0721	1.1	ASEDALFGTMRF-NH2 [FLP-3-5, ASEDALFGTMRFamide]	–	–
–	–	EDGNAPFGTMKFamide (EDGNAPFGTMKF-NH2) [FLP-3-6]	–	activation of FRPR-16 (FRPR-16): did not activate FRPR-16; also recorded: did not activate either receptor; activation of NPR-10 (NPR-10B) (NPR-10B): did not activate NPR-10; also recorded: did not activate either receptor
